The values below come from patent publication US20200000816A1, “COMPOUND HAVING SOMATOSTATIN RECEPTOR AGONISTIC ACTIVITY AND PHARMACEUTICAL USE THEREOF” (ONO PHARMACEUTICAL CO., LTD., priority 2017, published 2020).

Data set [1] deals with Chinese hamster lung-derived CHL/IU cells. The data set is described as follows: Evaluation of phospholipidosis induction ability using cultured cell line (NBD-PE incorporation). The conditions noted are these: 24 hours, positive = 25% or more of amiodarone maximum reaction at cell viability 50% or more; for phospholipidosis induction ability (judgement): 6.25-100 μmol/L. In kind it is cell-based. As for the experimental part:
Chinese hamster lung-derived CHL/IU cells were suspended in an MEM-E culture solution containing non-essential amino acids, sodium pyruvate and 10% foetal bovine serum and seeded in a 96-well plate. The cells cultured overnight in an incubator (5% carbon dioxide, 95% air, 37° C.) were further cultured for 24 hours after replacing the culture solution with a culture solution containing 6.25, 12.5, 25, 50 or 100 μmol/L of a test substance and NBD-PE (fluorescence label N-(7-nitrobenz-2-oxa-1,3-diazol-4-yl)-1,2-dihexadecanoyl-sn-glycero-3-phosphoethanolamine triethylammonium salt) obtained from Molecular Probes. The phospholipidosis induction ability was evaluated by measuring the concentration of NBD-PE incorporated into the cells. Specifically, the cells were washed twice with PBS and then measured for the fluorescence of NBD-PE (excitation wavelength: 485 nm, fluorescence wavelength: 535 nm) incorporated in the cells on a SpectraMax plate reader available from Molecular Devices, LLC. for evaluation. After measurement of the fluorescence of NBD-PE, the cell viability was evaluated with Premix WST-1 Cell Proliferation Assay System available from TaKaRa Bio Inc. The phospholipidosis induction ability was judged to be positive when, at a dose that provided a cell viability of 50% or more, the reaction (the concentration of NBD-PE incorporated after administration of a test substance) was 25% or more of the maximum reaction of a positive control amiodarone (the concentration of NBD-PE incorporated into the cells after administration of amiodarone was regarded as 100%).

The next data set has as its target T1, human SSTR2 (Homo sapiens, UniProt P30874).
T1 construct: Myc; expressed in transfected cells
Put plainly: Evaluation of SSTR2 agonistic activity using cells expressing human SSTR2 (suppression of forskolin-stimulated cAMP production, SSTR2-CHO-K1). In kind it is cell-based. Particulars: suppression of cAMP production by forskolin stimulation, 1000 nmol/L octreotide = 100%. A general note: cAMP levels reflect the balance of adenylyl cyclase and phosphodiesterase activity.

Another data set has as its target T2, hERG K+ channel (Homo sapiens, UniProt Q12809).
T2 construct: expressed in transfected cells; host or cells: CHO-K1
Put plainly: Evaluation of hERG K+ channel inhibitory activity using cells expressing human ERG (automated patch-clamp, CHO-K1). It is filed as cell-based. Particulars: CHO-K1 cells with human ERG gene, tested at 1, 3 and 10 μmol/L, 5-minute incubation. As for the experimental part:
Evaluation of hERG K^+ Channel Inhibitory Activity Using Cells Expressing Human ERG
CHO-K1 cells having the human ERG gene (ether-a-go-go related gene) introduced therein were subcultured in an F-12 medium [F-12 Nutrient Mixture (HAM)] containing 10% inactivated foetal bovine serum, 100 IU/mL penicillin-100 μg/mL streptomycin and 200 μg/mL geneticin.
Patch-clamp was performed in a full-automated manner using CHO-K1 cells having the human ERG gene introduced therein and having a perforated patch formed therein with amphotericin B. For the experiment, a 384-well PatchPlate™ was used and the cell suspension and compounds were added thereto. The IKr current was measured with command voltages of holding potential of −80 mV, depolarization potential of +40 mV (2 seconds) and repolarization potential of −50 mV (2 seconds). The stimulation frequency was twice (single pulse stimulations) before and after the treatment with a drug (the concentrations of a compound for evaluation were 1, 3 and 10 μmol/L, a 5-minute incubation), and the Ikr maximum current was measured. The inhibition (%) on the CHO-K1 cells having the human ERG gene introduced therein was determined by correcting the variation in the maximum tail current before and after addition of the test substance by the variation thereof in the group treated with a medium (inhibition (%)=(1-variation in current before and after addition of a test substance/variation in current before and after addition of a medium)×100). The 50% inhibitory concentration (IC50 value) was calculated from a line connecting two points on both sides of the inhibition of 50%.
(In general: The hERG channel carries a current that helps repolarise heart muscle cells.)

The next data set concerns GH secretion. The data set is described as follows: Evaluation of suppression of growth hormone (GH) secretion using rats (GHRH-induced). It is filed as in vivo. Particulars: Rattus norvegicus, 5 min, oral, dosage of 1 mg/kg, GHRH given 8 hours after dosing, blood GH 5 minutes after GHRH. As for the experimental part:
A medium (distilled water (Otsuka distilled water, Otsuka Pharmaceutical Factory, Inc.)) or a test compound dissolved in the medium was orally administered to rats (7-week old male Crl:CD(SD) IGS rats (Charles River Laboratories Japan, Inc.)) and after 7 hours and 57 minutes, the animals were administered with 50 mg/kg of pentobarbital sodium (Somnopentyl, Kyoritsu Seiyaku Corporation) via the tail vein for anaesthesia. Three minutes after administration of pentobarbital sodium, the rats were administered with 0.01 mg/kg of growth hormone-releasing hormone (GHRH, Bachem) via the tail vein to induce GH secretion. In order to measure the blood GH concentration, 0.2 mL of blood was collected through the jugular vein at 5 minutes after administration of GHRH. The collected blood was centrifuged at 4° C., 13,000×g for 5 minutes to obtain plasma. The blood GH concentration was measured by using Rat/Mouse Growth Hormone ELISA (Millipore) following the instruction of the kit. The percentage (%) of suppression of GH secretion was determined by using the obtained blood GH concentration and the equation {[suppression (%) of GH secretion]=([blood GH concentration of the group administered with the medium]−[blood GH concentration of the group administered with a test compound])/[blood GH concentration of the group administered with the medium]×100}. In the equation, the group administered with the medium represents the group of animals administered with the medium and the group administered with a test compound represents the group of animals administered with a test compound dissolved in the medium.

The structures appear in SMILES notation. pEC50, pIC50: −log10 of the molar value.

T2 sequence (Q12809 whole entry): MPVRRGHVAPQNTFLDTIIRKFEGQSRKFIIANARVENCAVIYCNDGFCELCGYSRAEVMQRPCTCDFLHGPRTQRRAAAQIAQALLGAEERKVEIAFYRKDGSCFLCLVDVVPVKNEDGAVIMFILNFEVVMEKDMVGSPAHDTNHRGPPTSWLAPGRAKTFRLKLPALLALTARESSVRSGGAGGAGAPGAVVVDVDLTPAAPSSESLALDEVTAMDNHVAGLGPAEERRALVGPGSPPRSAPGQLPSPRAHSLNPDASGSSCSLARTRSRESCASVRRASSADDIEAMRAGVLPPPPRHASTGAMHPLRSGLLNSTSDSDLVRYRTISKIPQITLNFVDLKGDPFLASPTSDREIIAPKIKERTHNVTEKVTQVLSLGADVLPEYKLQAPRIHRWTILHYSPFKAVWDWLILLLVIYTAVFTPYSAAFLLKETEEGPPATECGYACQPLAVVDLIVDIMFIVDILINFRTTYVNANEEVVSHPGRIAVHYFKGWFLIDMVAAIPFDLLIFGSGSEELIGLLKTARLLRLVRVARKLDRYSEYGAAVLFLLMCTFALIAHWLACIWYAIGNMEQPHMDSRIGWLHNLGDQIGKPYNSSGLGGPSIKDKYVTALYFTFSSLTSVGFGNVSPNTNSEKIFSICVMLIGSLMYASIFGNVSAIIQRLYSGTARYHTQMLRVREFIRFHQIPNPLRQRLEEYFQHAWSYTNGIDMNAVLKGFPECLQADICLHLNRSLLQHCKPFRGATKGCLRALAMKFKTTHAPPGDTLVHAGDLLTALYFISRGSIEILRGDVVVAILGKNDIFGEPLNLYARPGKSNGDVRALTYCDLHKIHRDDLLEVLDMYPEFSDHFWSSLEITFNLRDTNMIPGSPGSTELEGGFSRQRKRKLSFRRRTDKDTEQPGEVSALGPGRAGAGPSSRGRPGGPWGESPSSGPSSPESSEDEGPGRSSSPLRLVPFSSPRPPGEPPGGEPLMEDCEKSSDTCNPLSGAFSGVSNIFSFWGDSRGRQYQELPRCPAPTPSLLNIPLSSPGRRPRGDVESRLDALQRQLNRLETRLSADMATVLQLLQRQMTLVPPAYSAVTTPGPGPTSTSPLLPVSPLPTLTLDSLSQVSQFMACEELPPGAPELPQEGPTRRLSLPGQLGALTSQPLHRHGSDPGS
T1 sequence (P30874 whole entry): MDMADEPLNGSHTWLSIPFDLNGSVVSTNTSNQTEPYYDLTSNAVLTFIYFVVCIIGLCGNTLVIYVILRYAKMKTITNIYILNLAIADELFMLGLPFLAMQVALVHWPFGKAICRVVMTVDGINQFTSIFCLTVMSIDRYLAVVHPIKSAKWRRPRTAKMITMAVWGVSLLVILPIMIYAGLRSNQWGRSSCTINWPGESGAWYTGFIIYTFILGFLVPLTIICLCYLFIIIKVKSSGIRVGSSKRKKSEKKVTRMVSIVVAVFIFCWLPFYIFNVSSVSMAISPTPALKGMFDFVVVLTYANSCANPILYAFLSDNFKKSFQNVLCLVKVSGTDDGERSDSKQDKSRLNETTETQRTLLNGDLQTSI

Turning to `Cn1cc(-c2ncc(-c3cc(F)cc(F)c3)c(N3CC[C@@H](N)[C@@H](O)C3)c2-c2nc3cc(F)c(F)cc3[nH]2)cn1` [Example 1(2), (3S,4R)-4-amino-1-[3-(5,6-difluoro-1H-benzimidazol-2-yl)-5-(3,5-difluorophenyl)-2-(1-methyl-1H-pyrazol-4-yl)-4-pyridinyl]-3-piperidinol], in data set [1], the “phospholipidosis induction ability (judgement)” value is reported as “negative”. The pEC50 (as a rule, the EC50 on a negative log10 scale, so that one unit is a factor of ten) at human SSTR2 is 10.49. For the same molecule, at hERG K+ channel, the negative-log IC50 (pIC50) (in general, −log10 of the IC50, conventionally taken in molar units) was no more than 5.00.
On to `COC(=O)c1cc(F)cc2nc(-c3c(C)ncc(-c4cc(F)cc(Cl)c4)c3N3CC[C@@H](N)[C@@H](O)C3)[nH]c12` [Example 2(3), Methyl 2-{4-[(3S,4R)-4-amino-3-hydroxy-1-piperidinyl]-5-(3-chloro-5-fluorophenyl)-2-methyl-3-pyridinyl}-5-fluoro-1H-benzimidazole-7-carboxylate], for which the “concentration at which judged to be positive in phospholipidosis induction ability” value (“concentration at which judged” for short) in data set [1] is 12.5 µM. Also, the inhibition in vivo (in general, how much of the control response was suppressed) at 1 mg/kg with GH secretion is 76%. Moreover, the negative-log EC50 (pEC50) on human SSTR2 is 10.72. In addition, the negative logarithm of the IC50 (pIC50) at hERG K+ channel was 5.28.
`COC(=O)c1cc(F)cc2nc(-c3c(C)ncc(-c4cc(F)ccc4F)c3N3CC[C@@H](N)[C@@H](O)C3)[nH]c12` [Example 2(12), Methyl 2-{4-[(3S,4R)-4-amino-3-hydroxy-1-piperidinyl]-5-(2,5-difluorophenyl)-2-methyl-3-pyridinyl}-5-fluoro-1H-benzimidazole-7-carboxylate] gave a pEC50 at human SSTR2 of 10.80. In addition, the pIC50 on hERG K+ channel was 5.03.
Taken in the same sequence, the figures for `Cc1ncc(-c2cc(F)cc(F)c2)c(N2CC[C@@H](N)[C@@H](O)C2)c1-c1nc2cc(F)c(F)c(F)c2[nH]1` [Example 2(13), (3S,4R)-4-amino-1-[5-(3,5-difluorophenyl)-2-methyl-3-(5,6,7-trifluoro-1H-benzimidazol-2-yl)-4-pyridinyl]-3-piperidinol] were 10.77 and no more than 5.00.
Take `CCN[C@@H]1CCN(c2c(-c3cc(F)cc(F)c3)cnc(C)c2-c2nc3cc(F)c(OC)cc3[nH]2)C[C@@H]1O` [Example 3(4), (3S,4R)-1-[5-(3,5-difluorophenyl)-3-(5-fluoro-6-methoxy-1H-benzimidazol-2-yl)-2-methyl-4-pyridinyl]-4-(ethylamino)-3-piperidinol]: the inhibition in vivo at 1 mg/kg in the data set on GH secretion amounted to 71%. Further, the pEC50 on human SSTR2 was 10.25. The same molecule gave a negative logarithm of the IC50 (pIC50) against hERG K+ channel of no more than 5.00.
On to `Cc1ncc(-c2cc(F)cc(Cl)c2)c(N2CC[C@@H](NC3COC3)[C@@H](O)C2)c1-c1nc2cc(F)c(F)cc2[nH]1` [Example 3(5), (3S,4R)-1-[5-(3-chloro-5-fluorophenyl)-3-(5,6-difluoro-1H-benzimidazol-2-yl)-2-methyl-4-pyridinyl]-4-(3-oxetanylamino)-3-piperidinol], for which, in data set [1], the “phospholipidosis induction ability (judgement)” value is listed as “negative”. For the same molecule, at 1 mg/kg the inhibition in vivo with GH secretion was 83%. The pEC50 at human SSTR2 is 10.64. For the same molecule, the pIC50 on hERG K+ channel is 5.02.
Take `CCN[C@@H]1CCN(c2c(-c3cc(F)cc(F)c3)cnc(C)c2-c2nc3cc(F)c(F)c(F)c3[nH]2)C[C@@H]1O` [Example 3(15), (3S,4R)-1-[5-(3,5-difluorophenyl)-2-methyl-3-(5,6,7-trifluoro-1H-benzimidazol-2-yl)-4-pyridinyl]-4-(ethylamino)-3-piperidinol]: in the data set on GH secretion, the inhibition in vivo at 1 mg/kg is 66%. The molecule further showed a negative-log EC50 (pEC50) at human SSTR2 of 9.33. The pIC50 at hERG K+ channel was 5.24.
Take `COc1ccc2nc(-c3c(C)ncc(-c4cc(F)cc(Cl)c4)c3N3CC[C@@H](NC4COC4)[C@@H](O)C3)[nH]c2c1` [Example 3, (3S,4R)-1-[5-(3-chloro-5-fluorophenyl)-3-(6-methoxy-1H-benzimidazol-2-yl)-2-methyl-4-pyridinyl]-4-(3-oxetanylamino)-3-piperidinol]: in data set [1], the “phospholipidosis induction ability (judgement)” value is listed as “negative”. For the same molecule, the negative-log EC50 (pEC50) on human SSTR2 was 10.57. Also, on hERG K+ channel, the negative-log IC50 (pIC50) was no more than 5.00.
Consider `N[C@@H]1CCN(c2c(-c3cc(F)cc(F)c3)cncc2-c2nc3ccccc3[nH]2)C[C@@H]1O` [Example 4(4), (3S,4R)-4-amino-1-[3-(1H-benzimidazol-2-yl)-5-(3,5-difluorophenyl)-4-pyridinyl]-3-piperidinol], for which the “concentration at which judged” value in data set [1] is 25 µM. The molecule further had a negative-log EC50 (pEC50) at human SSTR2 of 11.03. Moreover, at hERG K+ channel, the negative logarithm of the IC50 (pIC50) was 5.17.
On the same counts, the results for `COc1ccc2nc(-c3cncc(-c4cc(F)ccc4F)c3N3CC[C@@H](N)[C@@H](O)C3)[nH]c2c1` [Example 4(15), (3S,4R)-4-amino-1-[3-(2,5-difluorophenyl)-5-(6-methoxy-1H-benzimidazol-2-yl)-4-pyridinyl]-3-piperidinol] are 25 µM, 10.92 and 5.04.
On the same counts, the results for `N[C@@H]1CCN(c2c(-c3cc(F)cc(F)c3)cncc2-c2nc3cc(F)c(F)cc3[nH]2)C[C@@H]1O` [Example 4, (3S,4R)-4-amino-1-[3-(5,6-difluoro-1H-benzimidazol-2-yl)-5-(3,5-difluorophenyl)-4-pyridinyl]-3-piperidinol] are no less than 12.5 µM, 10.82 and 5.16.
With `O[C@H]1CN(c2c(-c3cc(F)cc(Cl)c3)cncc2-c2nc3cc(F)c(F)cc3[nH]2)CC[C@H]1NCCC(F)(F)F` [Example 5(3), (3S,4R)-1-[3-(3-chloro-5-fluorophenyl)-5-(5,6-difluoro-1H-benzimidazol-2-yl)-4-pyridinyl]-4-[(3,3,3-trifluoropropyl)amino]-3-piperidinol], the “phospholipidosis induction ability (judgement)” value in data set [1] is recorded as “negative”. On human SSTR2, this molecule showed a negative-log EC50 (pEC50) of 9.55. The molecule also gave a pIC50 against hERG K+ channel of no more than 5.00.
Taken in the same sequence, the figures for `COc1cc(F)cc(-c2cncc(-c3nc4cc(F)c(F)cc4[nH]3)c2N2CC[C@@H](NCCC(F)(F)F)[C@@H](O)C2)c1` [Example 5(5), (3S,4R)-1-[3-(5,6-difluoro-1H-benzimidazol-2-yl)-5-(3-fluoro-5-methoxyphenyl)-4-pyridinyl]-4-[(3,3,3-trifluoropropyl)amino]-3-piperidinol] were “negative”, 9.38 and no more than 5.00.
As for `COC(=O)c1cc(F)cc2nc(-c3c(N4CCOCC4)ncc(-c4cc(F)cc(F)c4)c3N3CC[C@@H](N)[C@@H](O)C3)[nH]c12` [Example 6, Methyl 2-{4-[(3S,4R)-4-amino-3-hydroxy-1-piperidinyl]-5-(3,5-difluorophenyl)-2-(4-morpholinyl)-3-pyridinyl}-5-fluoro-1H-benzimidazole-7-carboxylate], in data set [1], the “concentration at which judged” value is 50 µM. In addition, at human SSTR2, the negative logarithm of the EC50 (pEC50) is 10.09. Also, the negative logarithm of the IC50 (pIC50) on hERG K+ channel is 5.36.
